Measured values from US6548522B1, “Method for treating conditions related to the glutamate receptor using carboxylic acid amide derivatives” (Hoffmann-La Roche Inc., priority 1999, dated 2003).

How the values were obtained:
rat mGlu1a receptor = target: T1, rat mGlu1a receptor (Rattus norvegicus, UniProt P23385); assay: [Ca2+]i measurement (FLIPR) on mGlu1a transfected EBNA cells; assay type: cell-based; conditions: for agonist or antagonist on group I mGlu receptor: mode of action, in words; for EC50: mGlu1a transfected EBNA cells, Fluo-3 AM, antagonists tested against 10 μM glutamate as agonist
T1 construct: expressed in transfected cells; host or cells: EBNA cells (transient transfection)
Experimental: cDNA encoding for rat mGlula receptor obtained from Prof.
[Ca^2+]i measurement were performed on mGlu1a transfected EBNA cells after incubation of the cells with Fluo-3 AM (0.5 μM final concentration) for 1 hour at 37° C. followed by 4 washes with assay buffer (DMEM supplemented with Hank's salt and 20 mM HEPES). [Ca^2+]i measurement were done using a fluorometric imaging plate reader (FLIPR, Molecular Devices Corporation, La Jolla, Calif., USA). When compounds were evaluated as antagonists they were tested against 10 μM glutamate as agonist.
The inhibition (antagonists) or activation (agonists) curves were fitted with a four parameter logistic equation giving EC50, IC50and Hill coefficient using the iterative non linear curve fitting software Origin (Microcal Software Inc., Northampton, Mass., USA).

T1 sequence (P23385 19-1199): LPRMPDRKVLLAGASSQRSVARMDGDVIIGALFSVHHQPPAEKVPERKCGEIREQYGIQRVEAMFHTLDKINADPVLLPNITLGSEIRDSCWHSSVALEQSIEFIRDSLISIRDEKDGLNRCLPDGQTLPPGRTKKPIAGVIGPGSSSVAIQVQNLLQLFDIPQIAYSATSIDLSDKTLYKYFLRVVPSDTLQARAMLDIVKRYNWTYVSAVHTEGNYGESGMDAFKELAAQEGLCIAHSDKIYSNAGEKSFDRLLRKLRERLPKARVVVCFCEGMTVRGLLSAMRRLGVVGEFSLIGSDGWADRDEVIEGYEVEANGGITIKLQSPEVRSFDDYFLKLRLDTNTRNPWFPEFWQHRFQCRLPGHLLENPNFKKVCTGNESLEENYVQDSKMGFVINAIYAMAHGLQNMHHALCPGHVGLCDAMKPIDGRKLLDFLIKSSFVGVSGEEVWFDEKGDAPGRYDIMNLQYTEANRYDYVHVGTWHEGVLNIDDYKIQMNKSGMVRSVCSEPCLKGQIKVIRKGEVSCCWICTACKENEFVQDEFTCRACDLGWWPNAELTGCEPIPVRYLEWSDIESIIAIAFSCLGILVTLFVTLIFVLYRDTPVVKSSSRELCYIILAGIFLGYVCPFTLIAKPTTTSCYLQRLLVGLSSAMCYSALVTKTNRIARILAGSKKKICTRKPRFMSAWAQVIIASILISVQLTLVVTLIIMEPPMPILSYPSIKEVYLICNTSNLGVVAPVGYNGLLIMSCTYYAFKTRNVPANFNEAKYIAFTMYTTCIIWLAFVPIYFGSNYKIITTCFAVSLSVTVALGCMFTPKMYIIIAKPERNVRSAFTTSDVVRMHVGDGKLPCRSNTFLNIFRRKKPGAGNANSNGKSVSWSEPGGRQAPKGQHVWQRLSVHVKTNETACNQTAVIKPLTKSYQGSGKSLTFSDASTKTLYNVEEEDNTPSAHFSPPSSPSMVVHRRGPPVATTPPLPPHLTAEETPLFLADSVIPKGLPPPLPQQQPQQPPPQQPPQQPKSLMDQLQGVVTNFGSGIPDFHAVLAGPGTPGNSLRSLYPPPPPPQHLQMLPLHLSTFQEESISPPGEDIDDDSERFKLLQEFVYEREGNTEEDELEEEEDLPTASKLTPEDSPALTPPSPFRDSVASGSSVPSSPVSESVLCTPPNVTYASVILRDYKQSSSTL

| SMILES | agonist or antagonist on group I mGlu receptor (rat mGlu1a receptor) | melting point [°C] | EC50 (rat mGlu1a receptor) [µM] |
| --- | --- | --- | --- |
| O=C(NCC1CC1)C(c1ccccc1)c1ccccn1 (racemic) [Example 22, (RS)-N-Cyclopropylmethyl-2-phenyl-2-pyridin-2-yl-acetamide] | antagonistic activity | – | – |
| CCCCNC(=O)C(C)(c1ccccc1)c1ccccc1 [Example 6, N-Butyl-2,2-diphenyl-propionamide] | antagonistic activity | – | – |
| O=C(NC1CC1)C(c1ccccc1)c1ccccc1 [Example 7, N-Cyclopropyl-2,2-diphenyl-acetamide] | – | 292 | 17 |
| CCCCCCCNC(=O)C(c1ccccc1)c1ccccc1 [Example 8, N-Heptyl-2,2-diphenyl-acetamide] | – | 90 | – |
| O=C(NCC1CC1)C(c1ccccc1)c1ccccc1 [Example 10, N-Cyclopropylmethyl-2,2-diphenyl-acetamide] | – | 130 | – |
| CCNC(=O)C(c1ccccc1)c1ccccc1 [Example 12, N-Ethyl-2,2-diphenyl-acetamide] | – | 87 | – |
| C=CCNC(=O)C(c1ccccc1)c1ccccc1 [Example 13, N-Allyl-2,2-diphenyl-acetamide] | – | 186 | – |
| C#CCNC(=O)C(c1ccccc1)c1ccccc1 [Example 14, 2,2-Diphenyl-N-prop-2-ynyl-acetamide] | – | 131 | – |
| CCCC=CCNC(=O)C(c1ccccc1)c1ccccc1 [Example 16, N-Hex-2-enyl-2,2-diphenyl-acetamide] | – | 81 | – |
| COCCCCNC(=O)C(c1ccccc1)c1ccccc1 [Example 19, N-(4-Methoxy-butyl)-2,2-diphenyl-acetamide] | – | 75.5 to 76.8 | 2.98 |
| CCOCCNC(=O)C(c1ccccc1)c1ccccc1 [Example 20, N-(2-Ethoxy-ethyl)-2,2-diphenyl-acetamide] | – | 83.5 to 86.2 | – |
| CC(C(=O)NCC1CCC1)(c1ccccc1)c1ccccc1 [Example 25, N-Cyclobutylmethyl-2,2-diphenyl-propionamide] | antagonistic activity | 79 | – |

Second part, the compound after the results:

| agonist or antagonist on group I mGlu receptor (rat mGlu1a receptor) | melting point [°C] | EC50 (rat mGlu1a receptor) [µM] | SMILES |
| --- | --- | --- | --- |
| – | 101 | – | CCCCCNC(=O)C(c1ccccc1)c1ccccc1 [Example 1, N -Pentyl-2,2-diphenyl-acetamide] |
| – | 90 | 2.12 | CCCNC(=O)C(c1ccccc1)c1ccccc1 [Example 2, 2,2-Diphenyl-N-propyl-acetamide] |
| antagonistic activity | 62 | 12.7 | CCCNC(=O)C(C)(c1ccccc1)c1ccccc1 [Example 3, 2,2-Diphenyl-N-propyl-propionamide] |
| antagonistic activity | – | 1 | CCCCCNC(=O)C(C)(c1ccccc1)c1ccccc1 [Example 4, N-Pentyl-2,2-diphenyl-propionamide] |
| – | 96 | – | CCCCNC(=O)C(c1ccccc1)c1ccccc1 [Example 5, N-Butyl-2,2-diphenyl-acetamide] |
| – | 100 | – | CCCCCCNC(=O)C(c1ccccc1)c1ccccc1 [Example 9, N-Hexyl-2,2-diphenyl-acetamide] |
| antagonistic activity | 380 | – | CC(C(=O)NCC1CC1)(c1ccccc1)c1ccccc1 [Example 11, N-Cyclopropylmethyl-2,2-diphenyl-propionamide] |
| – | 128 | – | CC(C)CCNC(=O)C(c1ccccc1)c1ccccc1 [Example 15, N-(3-Methyl-butyl)-2,2-diphenyl-acetamide] |
| – | 85 | – | CC=CCCCNC(=O)C(c1ccccc1)c1ccccc1 [Example 17, N-Hex-4-enyl-2,2-diphenyl-acetamide] |
| – | 74.2 to 75 | – | COCCCCCNC(=O)C(c1ccccc1)c1ccccc1 [Example 18, N-(5-Methoxy-pentyl)-2,2-diphenyl-acetamide] |
| – | 77.8 to 78.9 | 3.13 | CCCOCCNC(=O)C(c1ccccc1)c1ccccc1 [Example 21, 2,2-Diphenyl-N-(2-propoxy-ethyl)-acetamide] |
| antagonistic activity | 166 | 15 | O=C(NCCCC(F)(F)F)C(c1ccccc1)c1ccccc1 [Example 26, 2,2-Diphenyl-N-(4,4,4-trifluoro-butyl)-acetamide] |
| antagonistic activity | 82 | – | CC(C(=O)NCCCC(F)(F)F)(c1ccccc1)c1ccccc1 [Example 27, 2,2-Diphenyl-N-(4,4,4-trifluoro-butyl)-propionamide] |
| – | 90 | – | C#CCCCNC(=O)C(c1ccccc1)c1ccccc1 [Example 28, N-Pent-4-ynyl-2,2-diphenyl-acetamide] |
